Data set [1] relates to L1210. Description: Antitumor activity against mouse L1210 cells […] in ip dosed C3H X DBA2 F1 hybrid mouse on day 0 and dosed at LD10 level once daily on days 1 to 5 assessed as increase in life span relative to control. The data set is classed as functional.
Data set [2] is filed under the species Bos taurus. The experiment in a line: Displacement of ethidium from calf thymus DNA by fluorimetric method.
Data set [3] relates to Mus musculus. Description: Toxicity in ip dosed C3H X DBA2 F1 hybrid mouse […] with mouse L1210 cells on day 0 and dosed once daily on days 1 to 5 measured after 50 days. In kind it is organism-based. Conditions: in vivo, 1200 h.
For data set [4], the system named is L1210. The experiment in a line: Antitumor activity against mouse L1210 cells […] in ip dosed C3H X DBA2 F1 hybrid mouse on day 0 and dosed once daily on days 1 to 5 assessed as increase in life span relative to control. In kind it is functional.
The nature of data set [5]: Lipophilic-hydrophilic balance, Rm of the compound by partition chromatography. The data set is classed as physicochemical.
Data set [6] can be described thus: Displacement of ethidium from poly[d(A-T)]-poly[d(A-T)] DNA by fluorimetric method.
The nature of data set [7]: Displacement of ethidium from poly[d(G-C)]-poly[d(G-C)] DNA (unknown origin) by fluorimetric method.

For `C[n+]1cccc(NC(=O)c2ccc(NC(=O)c3ccc(Nc4c5ccccc5[n+](C)c5ccc(N)cc45)cc3)cc2)c1.[Cl-].[Cl-]`, in data set [1], the “log(ILSmax)” value was found to be 2.36. Further, the C50 in data set [2] turned out to be 0.17 µM; in data set [6] it was 0.09 µM; in data set [7], 0.25 µM. Besides, the LD10 in data set [3] turned out to be 55 mg/kg. In addition, the D40 in data set [4] amounted to 9 mg/kg. In data set [5], this compound yielded a Rm of 0.44.

Take `C/C(=N\NC(=N)N)c1ccc(NC(=O)c2ccc(Nc3cc[n+](C)c4cc(N)ccc34)cc2)cc1.Cc1ccc(S(=O)(=O)O)cc1.Cc1ccc(S(=O)(=O)[O-])cc1`: the “log(ILSmax)” value in data set [1] stood at 2.2. Also, the C50 worked out at 0.53 µM in data set [2], 0.19 µM in data set [6] and 1 µM in data set [7]. Also, the LD10 in data set [3] amounted to 31 mg/kg. Moreover, the D40 in data set [4] worked out at 4 mg/kg. Also, the Rm in data set [5] is listed as -0.36.

For the compound `CCCC[n+]1cccc(C(=O)Nc2ccc(NC(=O)c3ccc(C(=O)Nc4ccc5c(ccc[n+]5CCCC)c4)cc3)cc2)c1.Cc1ccc(S(=O)(=O)[O-])cc1.Cc1ccc(S(=O)(=O)[O-])cc1`, in data set [1], the “log(ILSmax)” value was 1.72. Also, the C50 in data set [2] was determined as 2.5 µM; in data set [6], 2.1 µM; in data set [7], 4.2 µM. This compound also returned an LD10 in data set [3] of 19 mg/kg. In addition, the D40 in data set [4] was 12 mg/kg. This compound also yielded a Rm in data set [5] of 0.65.

In the case of `C[n+]1ccc(Nc2ccc(NC(=O)c3ccc(/C=C/C4=NCCCN4)cc3)cc2)c2cc(N)ccc21.Cc1ccc(S(=O)(=O)O)cc1.Cc1ccc(S(=O)(=O)[O-])cc1`, the “log(ILSmax)” value in data set [1] is reported as 1.9. For the same compound, the values for the C50 in data set [2], in data set [6] and in data set [7] were 0.65 µM, 0.35 µM and 0.87 µM, respectively. For the same compound, the LD10 in data set [3] was found to be 7 mg/kg. Besides, in data set [4], the D40 was 2 mg/kg. The compound further displayed a Rm in data set [5] of 0.17.

For `CCC[n+]1ccc(Nc2ccc(NC(=O)c3ccc(Nc4cc[n+](CCC)c5ccccc45)cc3)cc2)cc1.[Br-].[Br-]`, in data set [1], the “log(ILSmax)” value is 1.81. Further, the C50 is 2.3 µM in data set [2], 0.2 µM in data set [6] and 3 µM in data set [7]. The same compound displayed an LD10 in data set [3] of 15 mg/kg. For the same compound, in data set [4], the D40 is 8.8 mg/kg. In data set [5], this compound registered a Rm of 0.74.

On to `C[n+]1cccc2ccc(NC(=O)c3ccc(NC(=O)c4ccc(C(=O)Nc5ccc6ccc[n+](C)c6c5)cc4)cc3)cc21.Cc1ccc(S(=O)(=O)[O-])cc1.Cc1ccc(S(=O)(=O)[O-])cc1`, for which, in data set [1], the “log(ILSmax)” value was determined as 1.85. In addition, the C50 in data set [2] was found to be 0.16 µM; in data set [6], 0.16 µM; in data set [7] it was 0.25 µM. Moreover, in data set [3], the LD10 was determined as 34 mg/kg. In addition, the D40 in data set [4] is 15 mg/kg. Further, the Rm in data set [5] is -0.76.

As to `C[n+]1ccc(Nc2ccc(NC(=O)c3ccc(Nc4cc[n+](C)c5cc(N)ccc45)cc3)cc2)cc1.[Br-].[Br-]`, the “log(ILSmax)” value in data set [1] turned out to be 2.11. Moreover, the C50 amounted to 0.68 µM in data set [2], 0.23 µM in data set [6] and 1.4 µM in data set [7]. Moreover, in data set [3], the LD10 stood at 11 mg/kg. Besides, the D40 in data set [4] was 2 mg/kg. In addition, in data set [5], the Rm is 0.08.

Take `Br.C/C(=N\NC(=N)N)c1ccc(NC(=O)c2ccc(Nc3cc[n+](C)c4ccc(N)cc34)cc2N)cc1.[Br-]`: the “log(ILSmax)” value in data set [1] amounted to 2.25. Also, the C50 was determined as 0.51 µM in data set [2], 0.21 µM in data set [6] and 0.78 µM in data set [7]. The LD10 in data set [3] came to 40 mg/kg. In data set [4], the D40 was found to be 1.7 mg/kg. For the same compound, the Rm in data set [5] is listed as -0.41.

For `COc1cccc2c(Nc3ccc(C(=O)Nc4ccc(Nc5cc[n+](C)cc5)cc4)cc3)cc[n+](C)c12.[Br-].[Br-]`, the “log(ILSmax)” value in data set [1] amounted to 2.14. Further, the C50 amounted to 0.76 µM in data set [2], 0.16 µM in data set [6] and 1.62 µM in data set [7]. In data set [3], this compound returned an LD10 of 6 mg/kg. Besides, the D40 in data set [4] amounted to 0.3 mg/kg. In addition, the Rm in data set [5] was found to be 0.3.

Regarding `C[n+]1cccc(NC(=O)c2ccc(NC(=O)c3ccc(C(=O)Nc4ccc(C(=O)Nc5ccc[n+](C)c5)c5ccccc45)cc3)cc2)c1.Cc1ccc(S(=O)(=O)[O-])cc1.Cc1ccc(S(=O)(=O)[O-])cc1`, the “log(ILSmax)” value in data set [1] was determined as 1.65. Moreover, the C50 came to 2.2 µM in data set [2], 2.3 µM in data set [6] and 2.6 µM in data set [7]. The same compound showed an LD10 in data set [3] of 75 mg/kg. Moreover, the D40 in data set [4] stood at 72 mg/kg. The Rm in data set [5] was 0.08.

With `C[n+]1ccc(Nc2ccc(NC(=O)/C=C/c3ccc(Nc4cc[n+](C)c5ccc(N)cc45)cc3)cc2)cc1.Cc1ccc(S(=O)(=O)[O-])cc1.Cc1ccc(S(=O)(=O)[O-])cc1`, the “log(ILSmax)” value in data set [1] amounted to 2.24. Moreover, the C50 in data set [2] is 0.46 µM; in data set [6], 0.09 µM; in data set [7] it was 0.41 µM. Besides, the LD10 in data set [3] is 40 mg/kg. The D40 in data set [4] was determined as 1.6 mg/kg. In data set [5], the Rm was 0.03.

`C[n+]1ccc(Nc2ccc(S(=O)(=O)Nc3ccc(Nc4c5ccccc5[n+](C)c5cc(N)ccc45)cc3)cc2)cc1.[O-][Cl+3]([O-])([O-])[O-].[O-][Cl+3]([O-])([O-])[O-]`: the “log(ILSmax)” value in data set [1] is 2.18. Moreover, the C50 in data set [2] was 0.1 µM; in data set [6], 0.07 µM; in data set [7], 0.12 µM. In data set [3], the LD10 is 35 mg/kg. In data set [4], the D40 was found to be 5 mg/kg. The compound further gave a Rm in data set [5] of 0.57.

As for `CCC[n+]1ccc(Nc2ccc(NC(=O)c3ccc(Nc4cc[n+](CCC)c5ccc(N)cc45)cc3)cc2)cc1.[Br-].[Br-]`, the “log(ILSmax)” value in data set [1] is on record as 2.07. Also, the C50 in data set [2] was found to be 0.68 µM; in data set [6], 0.1 µM; in data set [7], 1.1 µM. In data set [3], the LD10 amounted to 10 mg/kg. In data set [4], the D40 turned out to be 1.8 mg/kg. Besides, in data set [5], the Rm is recorded as 0.46.

In the case of `CC[n+]1cccc(NC(=O)c2ccc(NC(=O)c3ccc(NC(=O)c4ccc(C(=O)Nc5ccc[n+](CC)c5)cc4)cc3)cc2)c1.Cc1ccc(S(=O)(=O)[O-])cc1.Cc1ccc(S(=O)(=O)[O-])cc1`, the “log(ILSmax)” value in data set [1] is on record as 1.9. Also, the C50 in data set [2] came out at 0.5 µM; in data set [6], 0.43 µM; in data set [7], 0.65 µM. In data set [3], the LD10 stood at 33 mg/kg. In addition, in data set [4], the D40 turned out to be 9.1 mg/kg. Further, the Rm in data set [5] is listed as -0.44.

Turning to `C[n+]1c2ccccc2c(Nc2ccc(NC(=O)Nc3ccc(NC(=N)NC(=N)N)cc3)cc2)c2ccc(N)cc21.Cl.[Cl-]`, the “log(ILSmax)” value in data set [1] came to 2.48. Also, the C50 came to 0.09 µM in data set [2], 0.06 µM in data set [6] and 0.13 µM in data set [7]. In addition, in data set [3], the LD10 was 200 mg/kg. Besides, in data set [4], the D40 worked out at 8 mg/kg. Besides, the Rm in data set [5] is reported as 0.46.

As for `C[n+]1cccc(NC(=O)c2ccc(NC(=O)c3ccc(C(=O)Nc4ccc(C(=O)Nc5ccc[n+](C)c5)c(N)c4)cc3)cc2N)c1.Cc1ccc(S(=O)(=O)[O-])cc1.Cc1ccc(S(=O)(=O)[O-])cc1`, the “log(ILSmax)” value in data set [1] came to 2.35. The C50 in data set [2] was found to be 0.26 µM; in data set [6] it was 0.12 µM; in data set [7], 0.39 µM. In data set [3], this compound yielded an LD10 of 44 mg/kg. In data set [4], the D40 turned out to be 2.4 mg/kg. Moreover, the Rm in data set [5] was -0.75.

Turning to `Cc1ccc(S(=O)(=O)[O-])cc1.Cc1ccc(S(=O)(=O)[O-])cc1.Cc1cccc2c(Nc3ccc(C(=O)Nc4ccc(Nc5cc[n+](C)cc5)cc4)cc3)cc[n+](C)c12`, the “log(ILSmax)” value in data set [1] was 2.02. For the same compound, the C50 in data set [2] was 0.87 µM; in data set [6] it was 0.31 µM; in data set [7], 2.01 µM. The compound also showed an LD10 in data set [3] of 60 mg/kg. For the same compound, the D40 in data set [4] was determined as 12 mg/kg. In data set [5], this compound gave a Rm of 0.51.

As to `C[n+]1ccc(-c2ccc(-c3ccc(-c4ccc(NC(=O)c5ccc(C(=O)Nc6ccc(-c7ccc(-c8ccc(-c9cc[n+](C)cc9)cc8)cc7)cc6)cc5)cc4)cc3)cc2)cc1.Cc1ccc(S(=O)(=O)[O-])cc1.Cc1ccc(S(=O)(=O)[O-])cc1`, in data set [1], the “log(ILSmax)” value is on record as 2.28. Besides, the C50 in data set [2] came out at 0.55 µM; in data set [6] it was 0.4 µM; in data set [7] it was 1.15 µM. This compound also registered an LD10 in data set [3] of 110 mg/kg. For the same compound, the D40 in data set [4] stood at 22 mg/kg. The Rm in data set [5] is given as -0.3.

For the compound `Br.C/C(=N\NC(=N)N)c1ccc(NC(=O)Nc2ccc(Nc3cc[n+](C)c4ccc(N)cc34)cc2)cc1.[Br-]`, in data set [1], the “log(ILSmax)” value worked out at 2.2. For the same compound, the C50 came to 0.42 µM in data set [2], 0.25 µM in data set [6] and 0.53 µM in data set [7]. The LD10 in data set [3] was determined as 150 mg/kg. Further, in data set [4], the D40 was determined as 18.5 mg/kg. In addition, the Rm in data set [5] is reported as -0.15.

On to `COc1cc(C(=O)Nc2ccc(C(=O)Nc3ccc[n+](C)c3)cc2)ccc1C(=O)Nc1ccc(C(=O)Nc2ccc[n+](C)c2)cc1.Cc1ccc(S(=O)(=O)[O-])cc1.Cc1ccc(S(=O)(=O)[O-])cc1`, for which the “log(ILSmax)” value in data set [1] is recorded as 1.72. Moreover, the values for the C50 in data set [2], in data set [6] and in data set [7] were 0.64 µM, 0.64 µM and 1.51 µM, respectively. This compound yielded an LD10 in data set [3] of 18 mg/kg. Besides, in data set [4], the D40 turned out to be 10.3 mg/kg. The Rm in data set [5] stood at 0.23.

On to `C[n+]1cccc(-c2ccc(NC(=O)/C=C/c3ccc(C(=O)Nc4ccc(-c5ccc(-c6ccc(-c7ccc[n+](C)c7)cc6)cc5)cc4)cc3)cc2)c1.Cc1ccc(S(=O)(=O)[O-])cc1.Cc1ccc(S(=O)(=O)[O-])cc1`, for which, in data set [1], the “log(ILSmax)” value was found to be 2.16. Further, the C50 stood at 0.3 µM in data set [2], 0.13 µM in data set [6] and 0.46 µM in data set [7]. Also, in data set [3], the LD10 is 85 mg/kg. Further, in data set [4], the D40 was 26.9 mg/kg. Moreover, in data set [5], the Rm is -0.75.
